Assay results reported in ChEMBL document CHEMBL5212743, “Selectivity Literature for EUbOPEN Chemogenomics Library wave 3” (2023).
Each block holds one compound with its values, some of them ahead of it.

Legend:
Histamine H3 receptor = Histamine H3 receptor (Homo sapiens, UniProt Q9Y5N1); experiment: Selectivity interaction (NIBR principial panel (12 GPCRs, 3 nuclear receptors, 3 transporters, and 7 other enzymes)) EUB0000253b HRH3
[1] = molecular target: T1, Histone acetyltransferase KAT2B (Homo sapiens, UniProt Q92831); experiment: Selectivity interaction (NanoBRET assay (HEK293T cells)) EUB0000253b KAT2B
Target sequence in this assay (Q92831 whole entry): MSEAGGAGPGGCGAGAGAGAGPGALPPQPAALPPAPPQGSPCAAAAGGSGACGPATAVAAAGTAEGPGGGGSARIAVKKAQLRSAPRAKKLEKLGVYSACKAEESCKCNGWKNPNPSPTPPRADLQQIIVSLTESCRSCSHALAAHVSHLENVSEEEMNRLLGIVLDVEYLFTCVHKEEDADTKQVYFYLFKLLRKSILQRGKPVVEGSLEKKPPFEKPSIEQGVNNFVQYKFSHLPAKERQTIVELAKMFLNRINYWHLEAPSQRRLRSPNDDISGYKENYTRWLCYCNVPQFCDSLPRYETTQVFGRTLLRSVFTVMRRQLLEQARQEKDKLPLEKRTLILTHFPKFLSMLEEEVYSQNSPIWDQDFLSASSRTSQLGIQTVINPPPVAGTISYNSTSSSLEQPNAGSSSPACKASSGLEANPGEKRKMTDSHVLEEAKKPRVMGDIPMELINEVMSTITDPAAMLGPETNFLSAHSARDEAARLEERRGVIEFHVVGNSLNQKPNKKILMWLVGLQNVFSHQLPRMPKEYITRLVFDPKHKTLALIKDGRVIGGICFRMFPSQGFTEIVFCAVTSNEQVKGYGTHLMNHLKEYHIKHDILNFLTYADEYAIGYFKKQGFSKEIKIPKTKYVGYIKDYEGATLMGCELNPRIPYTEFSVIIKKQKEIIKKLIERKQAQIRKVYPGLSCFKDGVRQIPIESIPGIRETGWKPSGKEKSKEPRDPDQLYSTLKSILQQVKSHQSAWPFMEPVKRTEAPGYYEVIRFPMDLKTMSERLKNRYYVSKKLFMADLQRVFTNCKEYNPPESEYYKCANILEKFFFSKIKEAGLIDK

[2] = molecular target: T2, Chromatin remodeling regulator CECR2 (Homo sapiens, UniProt Q9BXF3); experiment: Selectivity interaction (BROMOscan™ panel (DiscoverX)) EUB0000253b CECR2
Target sequence in this assay (Q9BXF3 whole entry): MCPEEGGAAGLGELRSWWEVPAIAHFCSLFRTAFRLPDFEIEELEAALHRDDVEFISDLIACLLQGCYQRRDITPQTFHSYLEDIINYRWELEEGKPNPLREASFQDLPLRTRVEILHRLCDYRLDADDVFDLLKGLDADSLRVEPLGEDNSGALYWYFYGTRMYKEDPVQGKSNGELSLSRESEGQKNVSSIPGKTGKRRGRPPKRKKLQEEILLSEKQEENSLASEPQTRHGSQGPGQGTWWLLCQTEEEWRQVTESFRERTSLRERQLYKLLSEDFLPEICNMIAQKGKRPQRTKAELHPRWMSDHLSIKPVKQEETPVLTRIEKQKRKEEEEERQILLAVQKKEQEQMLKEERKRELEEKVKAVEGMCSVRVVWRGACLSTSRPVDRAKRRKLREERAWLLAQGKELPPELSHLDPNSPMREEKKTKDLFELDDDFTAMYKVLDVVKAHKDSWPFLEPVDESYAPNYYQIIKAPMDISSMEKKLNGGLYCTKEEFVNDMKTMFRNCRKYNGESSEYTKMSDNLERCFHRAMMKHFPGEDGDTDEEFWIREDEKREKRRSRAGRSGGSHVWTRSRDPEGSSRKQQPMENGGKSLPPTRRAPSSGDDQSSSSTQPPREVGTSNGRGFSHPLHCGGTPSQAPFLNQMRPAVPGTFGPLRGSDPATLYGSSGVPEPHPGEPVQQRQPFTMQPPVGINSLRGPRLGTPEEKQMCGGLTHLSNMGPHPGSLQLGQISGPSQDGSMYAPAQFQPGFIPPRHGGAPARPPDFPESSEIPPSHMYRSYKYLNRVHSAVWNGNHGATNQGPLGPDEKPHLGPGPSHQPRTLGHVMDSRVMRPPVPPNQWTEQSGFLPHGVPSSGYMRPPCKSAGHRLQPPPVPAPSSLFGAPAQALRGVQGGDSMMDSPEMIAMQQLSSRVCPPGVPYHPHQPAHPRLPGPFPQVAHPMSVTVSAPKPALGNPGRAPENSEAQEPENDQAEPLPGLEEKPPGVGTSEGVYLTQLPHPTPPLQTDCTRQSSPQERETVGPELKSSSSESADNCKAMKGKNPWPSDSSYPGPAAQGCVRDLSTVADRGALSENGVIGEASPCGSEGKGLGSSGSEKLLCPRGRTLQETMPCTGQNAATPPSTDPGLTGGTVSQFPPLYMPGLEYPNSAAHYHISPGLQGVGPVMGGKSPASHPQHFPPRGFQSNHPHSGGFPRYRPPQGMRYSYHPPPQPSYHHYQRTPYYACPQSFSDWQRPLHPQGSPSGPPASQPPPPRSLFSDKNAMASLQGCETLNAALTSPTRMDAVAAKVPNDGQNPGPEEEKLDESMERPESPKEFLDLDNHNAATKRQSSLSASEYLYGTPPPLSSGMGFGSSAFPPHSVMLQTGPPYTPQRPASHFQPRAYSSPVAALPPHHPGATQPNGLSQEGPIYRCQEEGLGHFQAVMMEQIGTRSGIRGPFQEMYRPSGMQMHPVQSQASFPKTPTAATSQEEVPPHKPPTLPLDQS

[3] = molecular target: T3, Nucleosome-remodeling factor subunit BPTF (Homo sapiens, UniProt Q12830)
[4] = molecular target: T2, Chromatin remodeling regulator CECR2; experiment: Selectivity interaction (Bromodomain panel (DSF assay)) EUB0000253b CECR2
Target sequence in this assay (Q9BXF3 whole entry, looked up): as the sequence (Q9BXF3 whole entry) above

D(3) dopamine receptor = D(3) dopamine receptor (Homo sapiens, UniProt P35462); experiment: Selectivity interaction (NIBR principial panel (12 GPCRs, 3 nuclear receptors, 3 transporters, and 7 other enzymes)) EUB0000253b DRD3
Adenosine receptor A3 = molecular target: T4, Adenosine receptor A3 (Homo sapiens, UniProt P0DMS8); experiment: Selectivity interaction (NIBR principial panel (12 GPCRs, 3 nuclear receptors, 3 transporters, and 7 other enzymes)) EUB0000253b ADORA3
T4 sequence (P0DMS8 whole entry): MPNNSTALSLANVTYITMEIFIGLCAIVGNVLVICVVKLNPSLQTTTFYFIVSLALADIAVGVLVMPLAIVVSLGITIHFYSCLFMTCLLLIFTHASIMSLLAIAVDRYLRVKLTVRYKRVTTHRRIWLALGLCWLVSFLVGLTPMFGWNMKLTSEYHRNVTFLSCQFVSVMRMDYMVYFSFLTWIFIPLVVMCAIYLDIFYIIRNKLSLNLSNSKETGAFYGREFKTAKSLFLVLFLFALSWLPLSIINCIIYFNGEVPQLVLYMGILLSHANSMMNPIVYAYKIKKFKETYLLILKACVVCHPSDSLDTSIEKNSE

[5] = molecular target: T2, Chromatin remodeling regulator CECR2; experiment: Selectivity interaction (NanoBRET assay (HEK293T cells)) EUB0000253b CECR2
Target sequence in this assay (Q9BXF3 whole entry): as the sequence (Q9BXF3 whole entry) above

[6] = molecular target: T5, Histone acetyltransferase KAT2A (Homo sapiens, UniProt Q92830); experiment: Selectivity interaction (NanoBRET assay (HEK293T cells)) EUB0000253b KAT2A
[7] = molecular target: T1, Histone acetyltransferase KAT2B; experiment: Selectivity interaction (BROMOscan™ panel (DiscoverX)) EUB0000253b KAT2B
Target sequence in this assay (Q92831 whole entry): as the sequence (Q92831 whole entry) above

[8] = molecular target: T6, Bromodomain-containing protein 7 (Homo sapiens) (UniProt Q9NPI1); experiment: Selectivity interaction (Bromodomain panel (DSF assay)) EUB0000253b BRD7
T6 sequence (whole entry): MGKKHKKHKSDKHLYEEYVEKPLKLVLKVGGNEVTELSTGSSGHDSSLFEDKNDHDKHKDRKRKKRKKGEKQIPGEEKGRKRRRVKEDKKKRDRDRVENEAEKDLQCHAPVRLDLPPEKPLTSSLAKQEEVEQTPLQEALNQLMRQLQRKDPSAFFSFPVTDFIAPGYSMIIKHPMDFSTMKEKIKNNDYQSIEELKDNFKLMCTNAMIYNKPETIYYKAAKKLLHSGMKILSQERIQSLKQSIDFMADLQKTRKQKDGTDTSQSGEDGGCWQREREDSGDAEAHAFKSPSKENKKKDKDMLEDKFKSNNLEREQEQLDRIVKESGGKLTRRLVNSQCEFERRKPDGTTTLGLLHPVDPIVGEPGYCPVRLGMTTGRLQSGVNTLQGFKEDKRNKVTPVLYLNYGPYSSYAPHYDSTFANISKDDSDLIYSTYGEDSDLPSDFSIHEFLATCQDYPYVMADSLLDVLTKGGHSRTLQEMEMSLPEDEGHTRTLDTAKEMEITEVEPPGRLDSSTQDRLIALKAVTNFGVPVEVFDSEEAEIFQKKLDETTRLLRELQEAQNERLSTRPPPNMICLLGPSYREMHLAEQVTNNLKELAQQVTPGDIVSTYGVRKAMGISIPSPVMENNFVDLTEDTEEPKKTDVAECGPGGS

[9] = molecular target: T5, Histone acetyltransferase KAT2A; experiment: Selectivity interaction (BROMOscan™ panel (DiscoverX)) EUB0000253b KAT2A
[10] = molecular target: T3, Nucleosome-remodeling factor subunit BPTF; remark: listed apart in the source
[11] = molecular target: T1, Histone acetyltransferase KAT2B; experiment: Selectivity interaction (Bromodomain panel (DSF assay)) EUB0000253b KAT2B
Target sequence in this assay (Q92831 whole entry, looked up): as the sequence (Q92831 whole entry) above

[12] = molecular target: Tyrosine-protein kinase BAZ1B (Homo sapiens) (UniProt Q9UIG0); experiment: Selectivity interaction (Bromodomain panel (DSF assay)) EUB0000164c BAZ1B
Histamine H1 receptor = Histamine H1 receptor (Homo sapiens, UniProt P35367); experiment: Selectivity interaction (Receptor panel (Novartis) ) EUB0000164c HRH1
[13] = molecular target: Muscarinic acetylcholine receptor M1 (Homo sapiens, UniProt P11229); experiment: Selectivity interaction (Receptor panel (Novartis) ) EUB0000164c CHRM1
[14] = molecular target: Calcium/calmodulin-dependent protein kinase type II subunit beta (Homo sapiens, UniProt Q13554); experiment: Selectivity interaction (Upstate Kinase Profiler service (Millipore)) EUB0000056c CAMK2B
[15] = molecular target: 5'-AMP-activated protein kinase catalytic subunit alpha-1 (Homo sapiens, UniProt Q13131); experiment: Selectivity interaction (Upstate Kinase Profiler service (Millipore)) EUB0000056c PRKAA1
[16] = molecular target: SWI/SNF-related matrix-associated actin-dependent regulator of chromatin subfamily A member 4 (Homo sapiens) (UniProt P51532); experiment: Selectivity interaction (Bromodomain panel (DSF assay)) EUB0000201c SMARCA4
[17] = molecular target: T2, Chromatin remodeling regulator CECR2; experiment: (§1) Selectivity interaction (Bromodomain panel (DSF assay)) EUB0000201c CECR2
Target sequence in this assay (Q9BXF3 whole entry, looked up): as the sequence (Q9BXF3 whole entry) above

[18] = molecular target: T2, Chromatin remodeling regulator CECR2; experiment: Selectivity interaction (Cellular FRAP assay) EUB0000201c CECR2
Target sequence in this assay (Q9BXF3 whole entry): as above

[19] = molecular target: T6, Bromodomain-containing protein 7 (Homo sapiens); experiment: Selectivity interaction (Bromodomain panel (DSF assay)) EUB0000201c BRD7
[20] = molecular target: Transcription initiation factor TFIID subunit 1 (Homo sapiens, UniProt P21675); experiment: Selectivity interaction (Bromodomain panel (DSF assay)) EUB0000201c TAF1
[21] = molecular target: Bromodomain-containing protein 4 (Homo sapiens, UniProt O60885); experiment: Selectivity interaction (Bromodomain panel (DSF assay)) EUB0000201c BRD4
[22] = molecular target: T2, Chromatin remodeling regulator CECR2; experiment: as §1; remark: listed apart in the source
Target sequence in this assay (Q9BXF3 whole entry, looked up): as the sequence (Q9BXF3 whole entry) above

[23] = molecular target: T3, Nucleosome-remodeling factor subunit BPTF; experiment: Selectivity interaction (Bromodomain panel (DSF assay)) EUB0000201c BPTF

T5 sequence (Q92830 whole entry): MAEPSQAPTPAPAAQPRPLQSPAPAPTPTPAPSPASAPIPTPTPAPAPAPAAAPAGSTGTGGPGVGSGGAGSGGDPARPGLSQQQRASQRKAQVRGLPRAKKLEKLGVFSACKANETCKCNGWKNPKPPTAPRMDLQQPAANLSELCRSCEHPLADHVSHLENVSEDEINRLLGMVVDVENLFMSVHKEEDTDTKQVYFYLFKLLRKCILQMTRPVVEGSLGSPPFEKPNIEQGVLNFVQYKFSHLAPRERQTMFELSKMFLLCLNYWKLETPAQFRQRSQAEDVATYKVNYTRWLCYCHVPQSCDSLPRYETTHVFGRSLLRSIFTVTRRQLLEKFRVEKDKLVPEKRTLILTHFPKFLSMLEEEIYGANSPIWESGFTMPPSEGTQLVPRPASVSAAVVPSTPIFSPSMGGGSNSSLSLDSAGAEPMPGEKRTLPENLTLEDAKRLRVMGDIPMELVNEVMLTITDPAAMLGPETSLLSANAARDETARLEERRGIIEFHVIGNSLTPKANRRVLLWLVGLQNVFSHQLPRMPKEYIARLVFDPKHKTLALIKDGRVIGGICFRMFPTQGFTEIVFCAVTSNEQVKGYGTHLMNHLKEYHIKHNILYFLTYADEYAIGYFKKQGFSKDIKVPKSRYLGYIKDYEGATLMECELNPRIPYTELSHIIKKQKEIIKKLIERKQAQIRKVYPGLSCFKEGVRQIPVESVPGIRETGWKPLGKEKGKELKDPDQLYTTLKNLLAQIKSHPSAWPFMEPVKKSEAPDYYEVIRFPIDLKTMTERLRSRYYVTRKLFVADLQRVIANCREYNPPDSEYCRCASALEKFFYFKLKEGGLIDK
Tyrosine-protein kinase BAZ1B (Homo sapiens), sequence (Q9UIG0 whole entry): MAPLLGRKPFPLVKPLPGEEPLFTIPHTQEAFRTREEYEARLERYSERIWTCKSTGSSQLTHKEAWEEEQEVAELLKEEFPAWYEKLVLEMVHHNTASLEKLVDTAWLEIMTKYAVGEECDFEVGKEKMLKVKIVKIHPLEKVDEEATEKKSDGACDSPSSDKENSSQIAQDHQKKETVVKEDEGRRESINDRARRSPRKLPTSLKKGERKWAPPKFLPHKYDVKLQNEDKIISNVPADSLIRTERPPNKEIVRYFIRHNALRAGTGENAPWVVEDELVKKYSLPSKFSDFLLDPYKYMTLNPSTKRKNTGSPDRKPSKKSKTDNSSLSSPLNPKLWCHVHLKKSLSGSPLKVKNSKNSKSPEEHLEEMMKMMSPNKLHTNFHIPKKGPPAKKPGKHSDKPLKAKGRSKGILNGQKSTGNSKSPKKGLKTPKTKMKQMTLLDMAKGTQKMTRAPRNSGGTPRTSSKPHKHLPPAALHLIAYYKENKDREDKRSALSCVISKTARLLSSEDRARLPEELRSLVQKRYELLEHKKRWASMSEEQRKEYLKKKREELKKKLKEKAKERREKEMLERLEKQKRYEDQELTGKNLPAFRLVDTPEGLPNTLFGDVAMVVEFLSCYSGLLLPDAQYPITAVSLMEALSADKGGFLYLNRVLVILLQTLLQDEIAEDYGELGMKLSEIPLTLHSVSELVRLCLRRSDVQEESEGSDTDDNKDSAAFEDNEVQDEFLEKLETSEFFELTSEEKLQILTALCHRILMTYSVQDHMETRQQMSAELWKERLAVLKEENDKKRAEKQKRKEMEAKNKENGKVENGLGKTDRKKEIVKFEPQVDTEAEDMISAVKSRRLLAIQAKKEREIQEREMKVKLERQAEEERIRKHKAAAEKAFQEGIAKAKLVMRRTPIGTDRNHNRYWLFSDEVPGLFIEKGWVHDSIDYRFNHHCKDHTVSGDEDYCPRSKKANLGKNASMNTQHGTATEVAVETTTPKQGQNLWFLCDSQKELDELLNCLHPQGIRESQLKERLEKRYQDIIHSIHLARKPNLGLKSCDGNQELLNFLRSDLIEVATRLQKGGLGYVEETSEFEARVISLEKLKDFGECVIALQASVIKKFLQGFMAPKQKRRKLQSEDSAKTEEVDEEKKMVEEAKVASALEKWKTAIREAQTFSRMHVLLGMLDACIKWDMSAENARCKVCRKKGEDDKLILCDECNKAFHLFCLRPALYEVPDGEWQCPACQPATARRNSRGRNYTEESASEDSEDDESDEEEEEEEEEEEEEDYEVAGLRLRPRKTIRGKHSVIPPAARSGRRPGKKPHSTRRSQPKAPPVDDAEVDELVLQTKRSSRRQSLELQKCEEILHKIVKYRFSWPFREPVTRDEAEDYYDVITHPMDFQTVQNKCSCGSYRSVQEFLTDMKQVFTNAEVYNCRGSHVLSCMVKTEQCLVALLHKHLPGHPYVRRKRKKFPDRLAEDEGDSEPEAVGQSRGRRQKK

IC50 (Histamine H3 receptor): 4000 nM
IC50 [1]: > 10000 nM
Kd [2]: 66 nM
IC50 [3]: 30 nM
dTm [4]: 2.48 K
IC50 (D(3) dopamine receptor): 3500 nM
IC50 (Adenosine receptor A3): 4900 nM
IC50 [5]: > 10000 nM
IC50 [6]: > 10000 nM
Kd [7]: 74 nM
dTm [8]: 1.95 K
Kd [9]: 62 nM
dTm [10]: 6.16 K
dTm [11]: 1.53 K
SMILES: Cc1c(Nc2ccc(S(=O)(=O)N3CCN(C)CC3)cc2F)nc2ccc(-c3cnn(C4CC4)c3)cn2c1=O

dTm [12]: 0.7 K
IC50 (Histamine H1 receptor): 13000 nM
IC50 [13]: 13000 nM
SMILES: CC(C)NC(=O)N1CC[C@H](NC2=Nc3cc(F)ccc3N(CC(F)F)c3ccc(Cl)cc32)C1

IC50 [14]: 70 nM
IC50 [15]: 117 nM
SMILES: Cc1ccc(-c2ccc3c(ccc4sc5c(c43)NC[C@@H](C)NC5=O)n2)cn1

dTm [16]: < 2 K
dTm [17]: 12.5 K
EC50 [18]: 100 nM
dTm [19]: < 2 K
dTm [20]: < 2 K
dTm [21]: < 2 K
dTm [22]: 15.5 K
dTm [23]: < 2 K
SMILES: CCCS(=O)(=O)c1nc(NC2CC2)cc(-c2ccc3c(ccn3C3CC(C)(C)NC(C)(C)C3)c2)n1
